These are literature values, as cited in patent US20160129117A1, “Novel Boronic Acid Compound Preparation” (NIPPON KAYAKU KABUSHIKI KAISHA, priority 2013, published 2016).

Like-named read-outs stand apart in the source and are kept apart here.

The conditions of series [1]: in vivo.

For the molecule `CC(C)C[C@H](NC(=O)[C@H](Cc1ccccc1)NC(=O)c1cnccn1)B(O)O` [bortezomib], in series [1], the “total dose causing the peripheral nerve toxicity” value was “about 30 mg/m^2”. Also, the “incidence of grade 3 peripheral neuropathy” value is 16% (intravenous administration) and 6% (subcutaneous administration).
